The results in this text go back to patent US20120065231A1, “THIOPHENE DERIVATIVE” (SUMITOMO CHEMICAL COMPANY LTD., priority 2009, published 2012).

pEC50: −log10 of the molar value. Bounds are passed on as bounds.

In one data set the target is T1, androgen receptor (Homo sapiens, UniProt P10275, DEL75-80/DUP470-473).
T1 construct: expressed in transfected cells; host or cells: human-derived CHP212 cells, stably transformed with pGL3-TATA-3xARE and pRC/RSV-hAR Kozak
T1 sequence (P10275 with tags, fused parts or gaps DEL75-80/DUP470-473): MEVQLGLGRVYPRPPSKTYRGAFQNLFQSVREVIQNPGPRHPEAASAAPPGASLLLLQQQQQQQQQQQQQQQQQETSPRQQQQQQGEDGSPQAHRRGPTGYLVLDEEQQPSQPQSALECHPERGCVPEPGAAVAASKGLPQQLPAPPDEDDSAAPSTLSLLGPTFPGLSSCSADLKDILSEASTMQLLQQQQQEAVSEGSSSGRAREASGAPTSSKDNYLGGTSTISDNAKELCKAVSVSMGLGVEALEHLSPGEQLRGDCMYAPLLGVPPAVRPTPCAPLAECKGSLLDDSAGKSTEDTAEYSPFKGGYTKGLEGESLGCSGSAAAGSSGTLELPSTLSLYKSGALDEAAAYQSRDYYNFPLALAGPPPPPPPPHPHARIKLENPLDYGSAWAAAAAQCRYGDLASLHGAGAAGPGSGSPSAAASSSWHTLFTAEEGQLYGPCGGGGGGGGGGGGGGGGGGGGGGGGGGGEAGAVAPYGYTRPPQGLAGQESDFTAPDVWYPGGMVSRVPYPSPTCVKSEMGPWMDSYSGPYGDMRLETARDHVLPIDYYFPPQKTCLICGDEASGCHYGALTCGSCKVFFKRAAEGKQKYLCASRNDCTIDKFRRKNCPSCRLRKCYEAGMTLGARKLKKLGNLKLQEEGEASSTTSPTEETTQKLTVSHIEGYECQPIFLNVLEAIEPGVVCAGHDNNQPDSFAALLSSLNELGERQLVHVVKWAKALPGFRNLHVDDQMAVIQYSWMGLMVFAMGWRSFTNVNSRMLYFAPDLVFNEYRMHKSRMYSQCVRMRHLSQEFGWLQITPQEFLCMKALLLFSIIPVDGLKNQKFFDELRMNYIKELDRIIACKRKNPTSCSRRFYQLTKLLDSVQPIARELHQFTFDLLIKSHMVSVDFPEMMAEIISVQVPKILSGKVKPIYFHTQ
Kind of data set: Androgen receptor agonist activity by reporter gene assay method. It counts as cell-based.
Settings: not given
The protocol: After shaking for 10 minutes, the luciferase activity was measured by EnVision 2103 Multilabel Reader (PerkinElmer Co., Ltd.).
Molecule `CCCN(CC1CC1)c1cc(C(F)(F)F)c(C#N)s1` [Example 5, 5-[(cyclopropylmethyl)(propyl)amino]-3-(trifluoromethyl)thiophene-2-carbonitrile] had a pEC50 of 7.92.
In turn, `CCCN(CC1CC1)c1cc(C#N)c(C(F)(F)F)s1` [Example 7, 5-[(cyclopropylmethyl)(propyl)amino]-2-(trifluoromethyl)thiophene-3-carbonitrile] had a pEC50 of 7.00.
`CCCN(CC(F)(F)F)c1cc(Br)c(C#N)s1` [Example 23, 3-bromo-5-[(propyl)(2,2,2-trifluoroethyl)amino]thiophene-2-carbonitrile]: the pEC50 was 8.27.
As for `N#Cc1sc(N2CCCCC2C(O)C(F)(F)F)cc1C(F)(F)F` (stereo not drawn) [Example 43, 5-[2-(2,2,2-trifluoro-1-hydroxyethyl)piperidin-1-yl]-3-trifluoromethyl-thiophene-2-carbonitrile], the pEC50 was less than 5.00.
Same read-out and setting: with `CCCN(CC(F)(F)F)c1cc(C(F)(F)F)c(C#N)s1` [Example 45, 5-[(propyl)(2,2,2-trifluoroethyl)amino]-3-trifluoromethylthiophene-2-carbonitrile] the figure was 8.51.
On the same count and under the same terms, then `CCCN(CC(F)(F)F)c1cc(C)c(C#N)s1` [Example 46, 5-[(propyl)(2,2,2-trifluoroethyl)amino]-3-methylthiophene-2-carbonitrile], with 7.60.

The same data set, now with this note: agonist activity; transformed human-derived CHP212 cells with pGL3-TATA-3×ARE luciferase reporter and pRC/RSV-hAR Kozak; 24 hours; read-out: EC50.
With `N#Cc1sc(N2CCCCC2C(O)C(F)(F)F)cc1Br` (racemic) [Example 40, 3-bromo-5-[2-(2,2,2-trifluoro-1-hydroxyethyl)piperidin-1-yl]thiophene-2-carbonitrile], the pEC50 is 7.85.
The same measure, in the same setting: with `CCCN(CC1CC1)c1cc(Br)c(C=O)s1` [Example 1, 3-bromo-5-[(cyclopropylmethyl)(propyl)amino]thiophene-2-carbaldehyde] the figure was less than 5.00; with `CCCN(CC1CC1)c1cc(Br)c(C#N)s1` [Example 2, 3-bromo-5-[(cyclopropylmethyl)(propyl)amino]thiophene-2-carbonitrile], 7.97; with `N#Cc1sc(N2CCCC2)cc1Br` [Example 8, 3-bromo-5-(pyrrolidin-1-yl)thiophene-2-carbonitrile], 5.85.
`CC1CCCCN1c1cc(Br)c(C#N)s1` (stereo not drawn) [Example 9, 3-bromo-5-(2-methylpiperidin-1-yl)thiophene-2-carbonitrile]: the pEC50 was 6.35.
Turning to `CC1CCN(c2cc(Br)c(C#N)s2)CC1` [Example 12, 3-bromo-5-(4-methylpiperidin-1-yl)thiophene-2-carbonitrile], the pEC50 was 5.82.
Consider `CC(C)CN(C)c1cc(Br)c(C#N)s1` [Example 13, 3-bromo-5-[(methyl)(2-methylpropyl)amino]thiophene-2-carbonitrile], for which the pEC50 was 5.92.
`CCCN(CCC)c1cc(Br)c(C#N)s1` [Example 14, 3-bromo-5-(dipropylamino)thiophene-2-carbonitrile]: the pEC50 was 7.36.
As for `C=CCN(CC=C)c1cc(Br)c(C#N)s1` [Example 15, 3-bromo-5-(diallylamino)thiophene-2-carbonitrile], the negative logarithm of the EC50 (pEC50) was 7.88.
`COCCN(CCOC)c1cc(Br)c(C#N)s1` [Example 16, 5-[bis(2-methoxyethyl)amino]-3-bromothiophene-2-carbonitrile]: the pEC50 is 5.80.
Still for that read-out and setting: with `CCC1CCCCN1c1cc(Br)c(C#N)s1` (stereo not drawn) [Example 17, 3-bromo-5-(2-ethylpiperidin-1-yl)thiophene-2-carbonitrile] the figure was 8.31; with `CCCC1CCCCN1c1cc(Br)c(C#N)s1` (stereo not drawn) [Example 18, 3-bromo-5-(2-propylpiperidin-1-yl)thiophene-2-carbonitrile], 7.44; with `CCCN(CC(=O)OCC)c1cc(Br)c(C#N)s1` [Example 24, N-(4-bromo-5-cyanothiophen-2-yl)-N-propylglycine ethyl ester], less than 5.00.
Regarding `CCCN(CC(=O)NC)c1cc(Br)c(C#N)s1` [Example 25, N2-(4-bromo-5-cyanothiophen-2-yl)-N-methyl-N2-propylglycinamide], the negative-log EC50 (pEC50) was 5.82.
On the same count and under the same terms, with `CCCN(CC(=O)O)c1cc(Br)c(C#N)s1` [Example 26, N-(4-bromo-5-cyanothiophen-2-yl)-N-propylglycine] the figure was less than 5.00; with `CCCN(CC#N)c1cc(Br)c(C#N)s1` [Example 28, 3-bromo-5-[(cyanomethyl)(propyl)amino]thiophene-2-carbonitrile], 6.24; with `CCCN(CC1OCCO1)c1cc(Br)c(C#N)s1` [Example 31, 3-bromo-5-[(1,3-dioxolan-2-ylmethyl)(propyl)amino]thiophene-2-carbonitrile], 6.12.
As for `CCCN(CC=O)c1cc(Br)c(C#N)s1` [Example 32, 3-bromo-5-[(2-oxoethyl)(propyl)amino]thiophene-2-carbonitrile], the negative logarithm of the EC50 (pEC50) is less than 5.00.
Turning to `CCC1CCCC(=O)N1c1cc(Br)c(C#N)s1` (stereo not drawn) [Example 35, 3-bromo-5-(2-ethyl-6-oxopiperidin-1-yl)thiophene-2-carbonitrile], the pEC50 was less than 5.00.
The same measure, in the same setting: with `CC(O)C1CCCCN1c1cc(Br)c(C#N)s1` (stereo not drawn) [Example 41, 3-bromo-5-[2-(1-hydroxyethyl)piperidin-1-yl]thiophene-2-carbonitrile] the figure was 6.25; with `N#Cc1sc(N2CCCCC2C#N)cc1Br` (stereo not drawn) [Example 47, 5-(2-cyanopiperidin-1-yl)-3-bromo-thiophene-2-carbonitrile], 5.82.

Tested on in another data set: not listed separately
Kind of data set: Test of S9 metabolism stability in human. It counts as in vitro ADME. The note with it: human S9, NADPH, 37° C., reaction time 30 min. The protocol:
(§1) For the inventive compound, was carried out test of a S9 metabolism stability in human, rat and mouse.
(§2) Using MINISORP(75×12) NUNC-IMMUNO tube, a 0.5 μM I.S.-added reaction stopping solution (500 μL) and a 10 mmol/L NADPH solution (50 μL) were mixed. Subsequently, a S9 mixture (445 μL) and pure water (5 μL) were added to prepare an I.S.-added blank sample. Likewise, a S9 mixture (445 μL) and a 100 μM test substance solution (5 μL) were added, preparing an calibration curve sample.
(§3) A S9 mixture (1068 μL) was dispensed into MINISORP (75×12) NUNC-IMMUNO tube. On ice water, a 100 μM test substance solution (12 μL) was added, and pre-incubation was carried out at 37° C. for 5 minutes. An aliquot (450 μL) of this was fractionated, and a […] I.S.-added reaction stopping solution (500 μL) and a 10 mmol/L NADPH solution (50 μL) were added, to obtain an unreacted sample (reaction time; 0 min). To the residue after fractionation, a 10 mmol/L NADPH solution (70 μL) was added, and incubation was carried out at 37° C. for 30 minutes, and an aliquot (500 μL) was fractionated, then, a 0.5 μM I.S.-added reaction stopping solution (500 μL) was added, preparing a reacted sample (reaction time; 30 min). […]
For `N#Cc1sc(N2CCCCC2C(O)C(F)(F)F)cc1Br` (stereo not drawn), the “Residual ratio (%) human” value came to 73.4%.

Tested on in a further data set: not listed separately
The data set can be described thus: Test of S9 metabolism stability in rat. Particulars: rat S9, NADPH, 37° C., reaction time 30 min. It counts as in vitro ADME. The protocol: as §1, §2, §3
As for `N#Cc1sc(N2CCCCC2C(O)C(F)(F)F)cc1Br` (stereo not drawn), the “Residual ratio (%) rat” value is recorded as 40.1%.

Tested on in the next data set: not listed separately
Kind of data set: Test of S9 metabolism stability in mouse. Particulars: mouse S9, NADPH, 37° C., reaction time 30 min. It counts as in vitro ADME. The protocol:
as §1, §2, §3
Take `N#Cc1sc(N2CCCCC2C(O)C(F)(F)F)cc1Br` (stereo not drawn): the “Residual ratio (%) mouse” value is reported as 39.1%.

By pEC50 is commonly meant the EC50 on a negative log10 scale, so that one unit is a factor of ten.
